Each block holds one molecule with its values, some of them ahead of it.
How the values were obtained:
RXRA [1] = biological target: T1, RXRA (Homo sapiens, UniProt P19793); conditions: cited from earlier work
T1 sequence (P19793 1-462): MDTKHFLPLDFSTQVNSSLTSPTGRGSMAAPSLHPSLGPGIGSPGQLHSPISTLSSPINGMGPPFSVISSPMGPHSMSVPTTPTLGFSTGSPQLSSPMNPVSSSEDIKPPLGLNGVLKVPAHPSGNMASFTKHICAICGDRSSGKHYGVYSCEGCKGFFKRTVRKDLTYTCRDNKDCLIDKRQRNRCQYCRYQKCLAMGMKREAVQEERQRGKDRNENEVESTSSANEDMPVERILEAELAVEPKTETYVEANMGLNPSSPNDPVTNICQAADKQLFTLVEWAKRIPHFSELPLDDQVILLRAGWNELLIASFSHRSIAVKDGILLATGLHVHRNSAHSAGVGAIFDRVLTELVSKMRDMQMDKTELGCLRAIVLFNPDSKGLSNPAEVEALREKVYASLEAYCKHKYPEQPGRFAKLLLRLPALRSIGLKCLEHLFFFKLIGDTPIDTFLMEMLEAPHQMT

[2] = tested on: RXRA (Gal4-RXRA reporter); type: in vivo, mouse; conditions: for proportion of GFP+mCherry+ cells in total bone marrow cells / single cell abundance of GFP, mean fluorescence intensity (MFI): Gal4-RXRA transplanted mice; for proportion of GFP+mCherry+ cells in total bone marrow cells: compared to mice without treatment; for single cell abundance of GFP, mean fluorescence intensity (MFI): whole bone marrow cells
[3] = tested on: mouse hematopoietic cells; type: in vivo; conditions: after PHZ treatment, mass spectrometry
[4] = tested on: RXRA (Gal4-RXRA reporter); assay: Gal4-RXRA UAS-GFP Kit+ reporter cells treated with plasma from treated mice; type: in vivo, mouse; conditions: Kit+ cells transduced with Gal4-RXRA, plasma from mice exposed to the agent
RXR alpha LBD-GST [5] = assay: FRET or BRET
[6] = biological target: T2, RXRA (Gal4-DBD fused to RXRA-LBD) (Homo sapiens, UniProt P19793); type: cell-based, mouse; conditions: primary UAS-GFP Kit+ cells transduced with Gal4-RXRA; synthesized fatty acids
T2 sequence (P19793 227-458 limits assumed): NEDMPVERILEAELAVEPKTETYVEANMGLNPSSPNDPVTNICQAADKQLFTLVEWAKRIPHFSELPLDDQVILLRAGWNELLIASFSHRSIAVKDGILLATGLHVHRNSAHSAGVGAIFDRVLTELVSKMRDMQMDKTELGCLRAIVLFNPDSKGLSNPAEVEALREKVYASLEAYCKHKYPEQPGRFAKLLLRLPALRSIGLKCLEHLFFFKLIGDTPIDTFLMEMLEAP

RXR alpha LBD-GST [7] = biological target: T3, RXR alpha LBD-GST (Homo sapiens, UniProt P19793); assay: LanthaScreen TR-FRET Retinoic X Receptor alpha Coactivator assay; type: biochemical
T3 sequence (P19793 227-458 limits assumed): T2 sequence (P19793 227-458 limits assumed)

Flag-Gal4 DBD-RXRA LBD = biological target: T4, Flag-Gal4 DBD-RXRA LBD (Homo sapiens, UniProt P19793); type: binding; conditions: 293T-FXP cells treated with serum up to 24 hours
T4 sequence (P19793 227-458 limits assumed): T2 sequence (P19793 227-458 limits assumed)

RXRA [8] = biological target: T1, RXRA; assay: DR1x3-TK-Luc luciferase reporter in 293T cells with full-length RXRA; type: cell-based; conditions: 40 hour incubation

Molecule: CC/C=C\C/C=C\C/C=C\C/C=C\C/C=C\CCCCCC(=O)O [DPA, docosapentaenoic acid]
activation of RXRA in vitro (luciferase reporter) (RXRA [1]): activate RXRA in vitro

Molecule: NNc1ccccc1 [PHZ, phenylhydrazine]
proportion of GFP+mCherry+ cells in total bone marrow cells [2]: increase
single cell abundance of GFP, mean fluorescence intensity (MFI) [2]: increased
WBC peak following treatment ([2]; granulopoiesis following PHZ treatment): 18-22,000 /μl
concentrations of fatty acids C24:4 and C24:5 in bone marrow cells [3]: increased two-fold
concentrations of fatty acids C24:4 and C24:5 in peripheral blood cells [3]: increased three-fold
UAS-GFP reporter output with plasma from treated mice [4]: increased

Molecule: O=c1[nH]cc(F)c(=O)[nH]1 [5-FU, 5-fluoruracil]
UAS-GFP reporter output with plasma from treated mice [4]: did not observe an increase

EC50 of the ligand C24:5 for induced binding of the peptide (RXR alpha LBD-GST [5]): 94 nM
EC50 of the ligand DHA for induced binding of the peptide (RXR alpha LBD-GST [5]): 86 nM
Molecule: Fluorescein-PGC1α peptide

Molecule: CCCCC/C=C\C/C=C\C/C=C\C/C=C\CCCC(=O)O [AA, arachidonic acid]
activation of RXRA in vitro (luciferase reporter) (RXRA [1]): activate RXRA in vitro

activation of the GFP reporter [6]: did not activate the GFP reporter
binding to Flag-Gal4-RXRA in pull-down (MS) (Flag-Gal4 DBD-RXRA LBD): bound to RXRA in a time-dependent manner
Molecule: CC/C=C\C/C=C\C/C=C\C/C=C\C/C=C\CCCCCCCC(=O)O [C24:4, (9Z, 12Z, 15Z, 18Z, 21Z)-tetracosa-9,12,15,18,21-tetraenoic acid]
binding of PGC1 and D22 co-activator peptides (TR-FRET) (RXR alpha LBD-GST [7]): did not lead to binding of either PGC1 or D22

activation of DR1-luciferase reporter (RXRA [8]): could activate a DR1-luciferase reporter
binding to Flag-Gal4-RXRA in pull-down (MS) (Flag-Gal4 DBD-RXRA LBD): bound to RXRA in a time-dependent manner
Molecule: CC/C=C\C/C=C\C/C=C\C/C=C\C/C=C\CCCCCCCC(=O)O [C24:5, (9Z, 12Z, 15Z, 18Z, 21Z)-tetracosa-9,12,15,18,21-pentaenoic acid]
binding of PGC1 and D22 co-activator peptides (TR-FRET) (RXR alpha LBD-GST [7]): induced dose-dependent binding of both PGC1 and D22 peptides

binding to Flag-Gal4-RXRA in pull-down (MS) (Flag-Gal4 DBD-RXRA LBD): bound to RXRA in a time-dependent manner
Molecule: CC/C=C\C/C=C\C/C=C\C/C=C\C/C=C\C/C=C\CCC(=O)O [DHA, docosahexaenoic acid]
activation of RXRA in vitro (luciferase reporter) (RXRA [1]): activate RXRA in vitro

B1: granulocyte colony stimulating factor (protein, UniProt P09919 31-207, looked up)
Granulocyte …: TPLGPASSLPQSFLLKCLEQVRKIQGDGAALQEKLVSECATYKLCHPEELVLLGHSLGIPWAPLSSCPSQALQLAGCLSQLHSGLFLYQGLLQALEGISPELGPTLDTLQLDVADFATTIWQQMEELGMAPALQPTQGAMPAFASAFQRRAGGVLVASHLQSFLEVSYRVLRHLAQP
proportion of GFP+mCherry+ cells in total bone marrow cells [2]: increase
single cell abundance of GFP, mean fluorescence intensity (MFI) [2]: increased
UAS-GFP reporter output with plasma from treated mice [4]: increased
